Literature values in patent US20230302026A1, “IMMUNOMODULATION FORMULATIONS AND RELATED METHODS” (priority 2020, published 2023).
≈ marks a conversion by molar mass, not a printed value. Like-named read-outs stand apart in the source and are kept apart here.

How the values were obtained:
inflammation = details: animal model
CB2 [1] = molecular target: T1, CB2 (Homo sapiens, UniProt P34972)
Adenosine A2A = Adenosine A2A (Homo sapiens, UniProt P29274)
TRPV1 = TRPV1 (Homo sapiens, UniProt Q8NER1)
FAAH [2] = molecular target: T2, FAAH (Homo sapiens, UniProt O00519)
T2 sequence (O00519 1-579): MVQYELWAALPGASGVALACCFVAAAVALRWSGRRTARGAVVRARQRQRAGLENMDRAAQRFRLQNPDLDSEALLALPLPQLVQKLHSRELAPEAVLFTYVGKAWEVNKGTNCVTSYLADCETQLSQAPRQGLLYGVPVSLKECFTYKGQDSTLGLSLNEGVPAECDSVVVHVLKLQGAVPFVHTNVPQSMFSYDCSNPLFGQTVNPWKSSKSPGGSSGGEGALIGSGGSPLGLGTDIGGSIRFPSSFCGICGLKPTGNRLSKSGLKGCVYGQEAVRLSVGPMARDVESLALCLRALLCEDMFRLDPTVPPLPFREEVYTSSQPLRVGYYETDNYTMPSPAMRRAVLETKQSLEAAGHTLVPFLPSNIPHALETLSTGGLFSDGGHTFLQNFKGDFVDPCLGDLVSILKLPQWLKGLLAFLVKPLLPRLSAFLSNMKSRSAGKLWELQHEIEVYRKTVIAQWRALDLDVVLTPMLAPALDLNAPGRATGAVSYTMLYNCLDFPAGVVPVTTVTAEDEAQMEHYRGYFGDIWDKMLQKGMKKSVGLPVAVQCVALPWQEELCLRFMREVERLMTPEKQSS

5-HT1a = molecular target: T3, 5-HT1a (Homo sapiens, UniProt P08908)
T3 sequence (P08908 1-422): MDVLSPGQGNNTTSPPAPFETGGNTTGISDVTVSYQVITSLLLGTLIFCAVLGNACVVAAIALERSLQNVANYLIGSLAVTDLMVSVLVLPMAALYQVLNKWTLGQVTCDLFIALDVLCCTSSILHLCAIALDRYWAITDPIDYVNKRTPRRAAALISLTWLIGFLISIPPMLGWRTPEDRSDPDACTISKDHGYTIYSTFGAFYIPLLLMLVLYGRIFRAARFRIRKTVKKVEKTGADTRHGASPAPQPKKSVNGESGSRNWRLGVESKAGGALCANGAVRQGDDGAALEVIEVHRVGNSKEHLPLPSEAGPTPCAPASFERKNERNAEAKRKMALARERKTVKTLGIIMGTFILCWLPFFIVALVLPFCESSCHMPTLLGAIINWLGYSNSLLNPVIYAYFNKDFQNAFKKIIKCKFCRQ

CB1 [3] = molecular target: T4, CB1 (Homo sapiens, UniProt P21554)
Target sequence in this assay (P21554 whole entry, species assumed): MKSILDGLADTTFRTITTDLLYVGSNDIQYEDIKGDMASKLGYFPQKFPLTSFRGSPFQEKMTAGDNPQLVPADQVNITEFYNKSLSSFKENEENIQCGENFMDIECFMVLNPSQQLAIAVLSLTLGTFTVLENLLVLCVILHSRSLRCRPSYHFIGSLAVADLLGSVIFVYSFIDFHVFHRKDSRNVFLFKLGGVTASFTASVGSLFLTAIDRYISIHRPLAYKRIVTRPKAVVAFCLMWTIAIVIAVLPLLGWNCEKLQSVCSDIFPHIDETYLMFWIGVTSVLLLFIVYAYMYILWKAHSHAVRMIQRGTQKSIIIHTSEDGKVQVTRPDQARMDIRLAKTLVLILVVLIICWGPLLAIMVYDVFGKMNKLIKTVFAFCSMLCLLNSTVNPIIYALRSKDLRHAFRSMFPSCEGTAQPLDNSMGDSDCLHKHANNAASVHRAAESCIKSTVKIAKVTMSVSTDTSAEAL

GPR55 = GPR55 (Homo sapiens, UniProt Q9Y2T6)
Chain of GPR55 (Q9Y2T6 whole entry, species assumed): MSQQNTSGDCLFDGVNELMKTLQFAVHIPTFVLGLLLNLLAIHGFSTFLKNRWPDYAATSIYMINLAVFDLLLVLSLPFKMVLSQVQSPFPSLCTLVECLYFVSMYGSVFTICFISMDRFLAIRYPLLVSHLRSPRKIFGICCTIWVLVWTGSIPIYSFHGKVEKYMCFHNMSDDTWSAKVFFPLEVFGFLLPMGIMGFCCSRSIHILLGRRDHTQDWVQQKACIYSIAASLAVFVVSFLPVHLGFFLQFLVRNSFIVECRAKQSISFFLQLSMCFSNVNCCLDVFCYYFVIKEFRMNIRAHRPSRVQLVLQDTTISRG

FAAH [4] = details: read-out: IC50 as FAAH inhibitor
MAGL = molecular target: T5, MAGL (Homo sapiens, UniProt Q99685); details: read-out: IC50 as MAGL inhibitor
T5 sequence (Q99685 1-303): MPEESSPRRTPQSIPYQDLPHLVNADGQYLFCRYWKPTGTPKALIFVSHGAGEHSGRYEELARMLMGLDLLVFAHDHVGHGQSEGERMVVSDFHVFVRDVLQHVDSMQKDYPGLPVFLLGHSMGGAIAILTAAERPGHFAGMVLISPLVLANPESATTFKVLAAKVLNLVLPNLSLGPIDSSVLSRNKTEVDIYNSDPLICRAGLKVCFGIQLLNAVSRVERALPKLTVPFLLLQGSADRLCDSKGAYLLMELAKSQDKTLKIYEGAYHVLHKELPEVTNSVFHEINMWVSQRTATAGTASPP

CB2 [5] = molecular target: T1, CB2; remark: listed apart in the source
CB1 [6] = molecular target: T4, CB1; details: read-out: Ki, affinity for the human recombinant CB1 receptor
Target sequence in this assay (P21554 whole entry): as the sequence (P21554 whole entry, species assumed) above

monoamine oxidase = details: in vitro; read-out: IC50 as monoamine oxidase inhibitor (MAOI)
[7] = at 18° C.

T1 sequence (P34972 whole entry): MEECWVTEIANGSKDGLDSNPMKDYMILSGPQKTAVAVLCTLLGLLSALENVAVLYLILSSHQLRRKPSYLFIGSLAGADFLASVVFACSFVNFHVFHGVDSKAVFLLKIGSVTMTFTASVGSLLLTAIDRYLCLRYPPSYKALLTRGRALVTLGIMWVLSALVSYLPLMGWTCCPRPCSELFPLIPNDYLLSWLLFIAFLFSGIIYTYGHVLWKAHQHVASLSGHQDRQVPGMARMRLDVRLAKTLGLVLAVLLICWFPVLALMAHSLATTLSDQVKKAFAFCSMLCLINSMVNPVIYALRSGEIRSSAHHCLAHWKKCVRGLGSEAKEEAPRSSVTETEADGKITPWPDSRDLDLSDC
Chain of TRPV1 (Q8NER1 whole entry, species assumed): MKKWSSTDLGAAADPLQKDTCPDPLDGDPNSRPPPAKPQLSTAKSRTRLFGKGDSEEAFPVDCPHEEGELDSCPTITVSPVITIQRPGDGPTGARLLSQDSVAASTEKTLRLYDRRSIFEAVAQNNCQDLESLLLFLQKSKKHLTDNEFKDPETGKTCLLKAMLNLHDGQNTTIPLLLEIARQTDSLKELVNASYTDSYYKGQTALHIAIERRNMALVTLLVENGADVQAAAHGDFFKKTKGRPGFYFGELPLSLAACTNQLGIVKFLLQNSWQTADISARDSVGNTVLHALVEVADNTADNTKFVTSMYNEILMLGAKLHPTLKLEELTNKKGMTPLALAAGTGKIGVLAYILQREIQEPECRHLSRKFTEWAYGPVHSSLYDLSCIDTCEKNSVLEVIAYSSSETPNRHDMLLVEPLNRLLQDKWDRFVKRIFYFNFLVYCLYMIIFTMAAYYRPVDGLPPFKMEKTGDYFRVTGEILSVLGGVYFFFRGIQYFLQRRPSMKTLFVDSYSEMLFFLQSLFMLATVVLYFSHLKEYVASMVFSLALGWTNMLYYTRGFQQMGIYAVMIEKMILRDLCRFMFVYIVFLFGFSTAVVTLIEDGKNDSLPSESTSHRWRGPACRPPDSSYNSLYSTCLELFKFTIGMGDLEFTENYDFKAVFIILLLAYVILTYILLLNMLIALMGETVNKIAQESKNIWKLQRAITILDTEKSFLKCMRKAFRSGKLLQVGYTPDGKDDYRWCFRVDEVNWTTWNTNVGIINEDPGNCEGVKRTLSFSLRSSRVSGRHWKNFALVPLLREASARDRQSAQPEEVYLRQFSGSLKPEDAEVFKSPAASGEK
Chain of Adenosine A2A (P29274 whole entry): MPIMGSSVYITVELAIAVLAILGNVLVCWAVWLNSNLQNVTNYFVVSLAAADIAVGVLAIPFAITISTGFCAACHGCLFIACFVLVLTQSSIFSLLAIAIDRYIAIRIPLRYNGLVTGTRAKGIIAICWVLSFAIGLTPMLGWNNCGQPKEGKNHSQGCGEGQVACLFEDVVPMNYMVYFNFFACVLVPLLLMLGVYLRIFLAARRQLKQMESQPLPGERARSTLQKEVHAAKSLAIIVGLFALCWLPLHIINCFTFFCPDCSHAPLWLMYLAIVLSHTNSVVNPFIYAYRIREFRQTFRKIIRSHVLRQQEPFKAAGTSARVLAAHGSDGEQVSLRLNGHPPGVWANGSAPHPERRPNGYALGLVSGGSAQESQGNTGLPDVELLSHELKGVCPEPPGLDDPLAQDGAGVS

C/C1=C\CC/C(C)=C/CC(C)(C)/C=C/C1 [Humulene]
anti-inflammatory activity (inflammation): equal to dexamethasone

C=C(C)[C@@H]1CCC(C)=C[C@H]1c1c(O)cc(CCCCC)cc1O [cannabidiol]
activity at CB2 (CB2 [1]): Agonist
Activity at Adenosine A2A (Adenosine A2A): Agonist
Activity at TRPV1 (TRPV1): Agonist
Activity at FAAH (FAAH [2]): Inhibition
Activity at 5-HT1a (5-HT1a): Agonist
Activity at CB1 (CB1 [3]): Agonist
Activity at GPR55 (GPR55): Antagonist

O=c1c(O)c(-c2ccc(O)cc2)oc2cc(O)cc(O)c12 [kaempherol]
IC50 (FAAH [4]): < 1000 nM
IC50 (MAGL): < 100 nM

COc1ccc(/C=C/c2cc(OC)cc(=O)o2)cc1 [Yangonin, yangonin]
Ki (CB2 [5]): > 10000 nM
Ki (CB1 [6]): 720 nM

CC(C)CNC(=O)/C=C/C=C/CCCCCC/C=C/c1ccc2c(c1)OCO2 [guineesine]
IC50 (monoamine oxidase): 139000 nM

CCCCCc1cc(O)c2c(c1)OC(C)(C)[C@@H]1CCC(C)=C[C@@H]21 [THC, Δ^9-tetrahydrocannabinol]
activity at CB2 (CB2 [5]): partial agonist

C=C1CC/C=C(\C)CC[C@@H]2[C@@H]1CC2(C)C [(E)-BCP, beta-carophyllene]
Ki (CB2 [5]): 155 ± 4 nM

C=CC(C)(C)c1cc2cc3c(cc2oc1=O)OC(C(C)(C)OC(C)=O)C3 (stereo not drawn) [rutamarin]
Ki (CB2 [5]): < 10000 nM

c1ccc2c(Cc3c[nH]c4ccccc34)c[nH]c2c1 [3,3′-Diindolylmethane]
Ki (CB2 [5]): ~1000 nM

O=C(/C=C/C=C/c1ccc2c(c1)OCO2)N1CCCCC1 [piperine]
solubility in water [7]: 40 µg/mL (≈ 140 µM)
